From US7332482B2, “Method for treating benign prostatic hyperplasia” (BioXell S.p.A., priority 2003, dated 2008)
Entries after “also recorded” stand apart in the source; their conditions may differ. Marks after values point to notes of the source that are not given here.

Tests used:
prostate = assay: 9-month toxicity study in male beagle dogs (prostate weight); format: in vivo, dog
Procedure: A 9-month toxicity study was carried out in four groups of male beagle dogs, which were treated by daily oral gavage with 0.5 μg, 1.5 μg and 5 μg/kg body weight/day of Compound A (in vehicle Miglyol 812) or with vehicle alone. This treatment was followed by a 2-month recovery period for the group receiving the highest dose, 5 μg, after which prostate weights was measured.

human bladder cells = assay: Bladder cell growth, basal and testosterone-stimulated; format: cell-based
BPH cells = assay: In situ end labeling (ISEL) of apoptotic BPH cells; format: cell-based, human
Procedure: Human BPH cells, prepared, maintained and used as previously described in Crescioli C, et al. Journal of Clinical and Endocrinology Metabolism (2000) 85 p 2576-2583, were obtained from prostate tissues derived from 5 patients, who underwent suprapubic adenomectomy for BPH, after informed consent and approval by the Local Ethical Committee.
ISEL was performed onto BPH cells using Apop Tag in situ apoptosis detection kit peroxydase following the manufacturer's instruction. Cells were incubated with T (10 nM), KGF (10 ng/ml) or Des(1-3)IGF-I (10 ng/ml) with or without Compound A (10 nM). The percentage of apoptotic cells (the number of stained cells divided by the total number of cells) was calculated in at least five separate fields per slide in five different slides. Results are expressed as mean±SEM from three separate experiments.

For `C=C1/C(=C\C=C2/CCC[C@]3(C)C([C@@H](C)C/C=C/C(O)(CC)CC)=CC[C@@H]23)C[C@@H](O)C[C@@H]1F` [Compound A, 1-alpha-fluoro-25-hydroxy-16,23E-diene-26,27-bishomo-20-epi-cholecalciferol], the “prostate weight after recovery” value (prostate; 5 μg/kg/day 9 months then 2-month recovery, vs vehicle) was “reduction of prostate weight”, the toxicity data (prostate; 9 months daily oral gavage) was “entirely favourable toxicity data” and the “prostate weight at end of treatment” value (prostate; 9 months daily oral gavage, 0.5, 1.5, 5 μg/kg/day, vs vehicle) was “lower prostate weight; also recorded: clear reduction of prostate weight”. The “inhibition of basal and testosterone-stimulated growth of bladder cells” value (human bladder cells) was “effective in inhibiting”, the “effect on bladder cell growth compared with finasteride” value (human bladder cells; T 10 nM, F 1 nM) was “significantly greater than that of the anti-androgen finasteride” and the “change in percentage of apoptotic nuclei vs untreated cells” value (BPH cells; 48 h, Compound A 10 nM, T 10 nM, GFs 10 ng/ml) was 270%. The “Apoptotic index (%)” value (BPH cells; Compound A 10 nM alone, ISEL) was 68.44 ± 1.26^a %, the “Apoptotic index (%)” value (BPH cells; Compound A 10 nM with Des(1-3)IGF-I 10 ng/ml) was 45.85 ± 0.66^a,b,c % and the “increase in number of ISEL-positive BPH cells in the presence of GFs or T” value (BPH cells; Compound A 10 nM with GFs or T) was “more than 250%”. The “Apoptotic index (%)” value (BPH cells; Compound A 10 nM with KGF 10 ng/ml) was 44.46 ± 0.57^a,b,c % and the “Apoptotic index (%)” value (BPH cells; Compound A 10 nM with T 10 nM) was 49.06 ± 1.87^a,b,c %.
